The values that follow come from patent publication US12435097B2, “Arginase inhibitors and methods of use thereof” (AstraZeneca AB, priority 2019, dated 2025).

Read-outs that look alike come from different tables or passages of the source.

One data set has as its target T1, Human Arginase 1 (Homo sapiens, UniProt P05089).
T1 construct: made in house; host or cells: E. coli
T1 sequence (P05089 1-322): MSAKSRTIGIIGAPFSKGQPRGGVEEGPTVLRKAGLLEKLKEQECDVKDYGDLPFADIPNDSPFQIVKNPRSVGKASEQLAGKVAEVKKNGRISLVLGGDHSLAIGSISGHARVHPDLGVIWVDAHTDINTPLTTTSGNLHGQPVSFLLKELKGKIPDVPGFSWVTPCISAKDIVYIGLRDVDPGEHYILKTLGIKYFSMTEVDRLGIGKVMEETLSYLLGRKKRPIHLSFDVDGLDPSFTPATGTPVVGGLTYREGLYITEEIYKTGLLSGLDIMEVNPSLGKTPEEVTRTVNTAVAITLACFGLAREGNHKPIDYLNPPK
The data set can be described thus: Human Arginase 1 enzyme inhibition (thioarginine/DTNB absorbance at 412 nm). It counts as biochemical. To be noted: recombinant enzyme from E. coli, 5 nM; 30 min pre-incubation, 60 min reaction. The source says: (§1) The inhibitory effects of Examples 1 to 12 on the activity of Human Arginase 1 and Arginase 2 activity were quantified by measuring the formation of the thiol group from thioarginine using recombinant Arginase 1 or Arginase 2 produced from E. coli. The thiol group was detected with Ellman's reagent, 5,5′-dithiobis(2-nitrobenzoic acid) (DTNB). DTNB reacts with the thiol to give the mixed disulfide and 2-nitro-5-thiobenzoic acid (TNB) which is quantified by the absorbance of the anion (TNB^2−) at 412 nm.
(§2) The assays were run in clear 384 well plates (Greiner cat no: 781101). Various concentrations of Examples 1 to 12 in 300 nL DMSO were dispensed to assay plates using an Echo acoustic dispenser immediately followed by plate sealing and centrifugation. Two pre-mixes were prepared from reagents thawed immediately before addition to assay plates. Pre-mix one comprised human Arginase 1 or human Arginase 2, at a final concentration of 5 nM and 0.5 mM DTNB in assay buffer, 45 mM HEPES pH7.5, brij 35, 0.045% (w/v) and 100 μM MnCl2. Pre-mix two comprised freshly thawed 0.5 mM thioarginine in assay buffer. Fifteen microlitres of pre-mix one was dispensed to assay plates containing Examples 1 to 12, centrifuged and incubated for 30 minutes at room temperature prior to adding fifteen microlitres of pre-mix two.
(§3) Assay plates were centrifuged prior to reading absorbance at 412 nm in a Pherastar multi-mode plate reader to collect data at time point 0 (T0). The plates were incubated at room temperature for 60 min prior to reading again to collect data at time point 1 (T1). Data is derived by subtracting the A412 signal measured at T0 (time point 0) from that measured at T1 (time point 1). The data was transformed to % effect using the equation: Compound % effect=100*[(X−min)/(max−min)], where X represents the normalized value for the compound based on the Min (vehicle) and Max (reference compound) inhibition control.
(§4) The concentration of Examples 1 to 12 that inhibited the activity by 50% (i.e. the IC50) was calculated by plotting the % effect versus test compound concentration and fitting the data using the Genedata Screener Smart fit algorithm.

Another data set concerns the target T2, Human Arginase 2 (Homo sapiens, UniProt P78540).
T2 construct: made in house; host or cells: E. coli
T2 sequence (P78540 23-354): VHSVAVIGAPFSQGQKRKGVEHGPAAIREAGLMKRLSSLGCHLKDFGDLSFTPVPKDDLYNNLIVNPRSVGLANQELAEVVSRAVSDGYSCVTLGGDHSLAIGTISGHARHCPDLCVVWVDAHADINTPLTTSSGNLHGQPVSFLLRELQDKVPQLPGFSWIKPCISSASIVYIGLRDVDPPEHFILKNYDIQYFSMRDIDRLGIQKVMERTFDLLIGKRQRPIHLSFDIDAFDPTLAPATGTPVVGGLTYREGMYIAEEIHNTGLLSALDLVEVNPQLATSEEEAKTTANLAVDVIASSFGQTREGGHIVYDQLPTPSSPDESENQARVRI
The experiment in a line: Human Arginase 2 enzyme inhibition (thioarginine/DTNB absorbance at 412 nm). It counts as biochemical. To be noted: recombinant enzyme from E. coli, 5 nM; 30 min pre-incubation, 60 min reaction.
Excerpt: as §1, §2, §3, §4

The nature of data set [1]: Bioavailability / pharmacokinetic study in male rats (IV and PO). It counts as in vivo. To be noted: plasma; for bioavailability / AUC / Cmax / Tmax: male, rat, po, 5 mg/kg; for clearance / Vd: male rat; for Vd: read-out: Vdss. As to the method:
Examples 2, 3, and 4 are prodrug forms of Example 1. […] Example 2 was formulated in 0.9% w/v saline pH 4 (adjusted with 1M HCl) for IV dosing. The formulation was dosed at 2 mg/kg by femoral catheter to two male rats each (170-250 g). Jugular vein catheter serial blood samples were taken at 0.033, 0.083, 0.167, 0.5, 1, 2, 4, 8, and 24 hrs post-dose. For PO dosing, Example 2 was formulated in deionized water pH 4 (adjusted with 1M HCl) and dosed at 5 mg/kg by oral gavage to two male rats each (170-250 g). Serial blood samples were taken by jugular vein catheter at 0.25, 0.5, 1, 1.5, 2, 3, 4, 8, and 24 hrs post dose. Plasma samples were generated from blood using low speed centrifugation. A single set of calibration standards containing Example 1 and Example 2 were prepared by spiking blank plasma. The samples and standards were extracted by precipitation with two volumes of acetonitrile followed by centrifugation. The results obtained were used to determine the Cl (mL/min/kg), Vdss (L/kg), Cmax (μM), AUC (μM h), tmax (h), and % F for both Example 1 and Example 2. Absolute bioavailability was determined by comparing the PO dose normalized AUC of Example 1 when dosed as Example 2, versus the dose normalized IV AUC of Example 1 when dosed as Example 1. Where appropriate, measured and not nominal doses were used to calculate bioavailability. In an analogous fashion, the same procedure was repeated for Examples 3 and 4.

[2] abbreviates: PO 5 mg/kg of Example 2, Example 1 measured when dosed as pro-drug.
Setting [3] is: PO dosing of Example 3, Example 1 measured when dosed as pro-drug.
The mark [4] stands for this setting: PO dosing of Example 4, Example 1 measured when dosed as pro-drug.
[5] abbreviates: PO 5 mg/kg vs IV 2 mg/kg, pro-drug measured when dosed as pro-drug.
The mark [6] stands for this setting: PO 5 mg/kg, pro-drug measured when dosed as pro-drug.
Setting [7] is: IV 2 mg/kg, pro-drug measured when dosed as pro-drug.

In general, IC50 refers to the concentration that inhibits the measured activity by half. For the compound `N[C@H]1CCN[C@](CCCCB(O)O)(C(=O)O)C1` (single isomer, unassigned; enantiomer 2) [Example 11, anti-4-amino-2-(4-boronobutyl)piperidine-2-carboxylic acid enantiomer 2], the figures for the IC50 on Human Arginase 1 and at Human Arginase 2 were 3150 nM and 4370 nM, respectively.

As usually defined, the bioavailability is dose-corrected exposure relative to a reference, in per cent. Read a high bioavailability as good availability. In general, AUC refers to concentration integrated over time. What is called Cmax is the maximum level reached in the sampled fluid or tissue. What is called Tmax is the time from dosing to the highest level. Consider `N[C@H]1CCN[C@@](CCCCB(O)O)(C(=O)O)C1` [Example 1, (2R,4S)-4-amino-2-(4-boronobutyl)piperidine-2-carboxylic acid], for which the bioavailability turned out to be 82% in data set [1] (Example 1 after PO Example 2 vs IV AUC of Example 1 dosed as Example 1, dose normalized); 78% in data set [1] (Example 1 after PO Example 3 vs IV AUC of Example 1 dosed as Example 1, dose normalized); 20% in data set [1] (Example 1 after PO Example 4 vs IV AUC of Example 1 dosed as Example 1, dose normalized). The AUC in data set [1] (setting [2]) was found to be 23.7 µM·h; in data set [1] (setting [3]) it was 25.7 µM·h; in data set [1] (setting [4]) it was 6.1 µM·h. Moreover, the Cmax in data set [1] (setting [2]) stood at 2500 nM; in data set [1] (setting [3]), 2000 nM; in data set [1] (setting [4]), 1000 nM. For the same compound, the time to peak (Tmax) worked out at 2.3 h in data set [1] (setting [2]), 2.5 h in data set [1] (setting [3]) and 1.5 h in data set [1] (setting [4]). Moreover, the clearance in data set [1] (IV, Example 1 dosed as payload) is 8.5 mL/min/kg. Moreover, the Vd in data set [1] (IV, Example 1 dosed as payload) stood at 0.23 L/kg. Further, the figures for the IC50 at Human Arginase 1 and on Human Arginase 2 were 3 nM and 4 nM, respectively.

For `CC(C)[C@@H](N)C(=O)N[C@H]1CCN[C@@](CCCCB(O)O)(C(=O)O)C1` [Example 9, (2R,4S)-4-[[(2R)-2-amino-3-methyl-butanoyl]amino]-2-(4-boronobutyl)piperidine-2-carboxylic acid], the IC50 was 234 nM at Human Arginase 1 and 180 nM on Human Arginase 2.

On to `CC[C@H](N)C(=O)N[C@H]1CCN[C@@](CCCCB(O)O)(C(=O)O)C1` [Example 5, (2R,4S)-4-[[(2S)-2-aminobutanoyl]amino]-2-(4-boronobutyl)piperidine-2-carboxylic acid], for which the 50% inhibitory concentration (IC50) at Human Arginase 1 was found to be 25 nM; at Human Arginase 2, 21 nM.

`CC(C)C[C@H](N)C(=O)N[C@H]1CCN[C@@](CCCCB(O)O)(C(=O)O)C1` [Example 6, (2R,4S)-4-[[(2S)-2-amino-4-methyl-pentanoyl]amino]-2-(4-boronobutyl)piperidine-2-carboxylic acid]: the results for the IC50 at Human Arginase 1 and at Human Arginase 2 were 18 nM and 15 nM, respectively.

For `N[C@@H]1CCN[C@](CCCCB(O)O)(C(=O)O)C1` (single isomer, unassigned) [Example 12], the IC50 was found to be 2200 nM on Human Arginase 1 and 2540 nM at Human Arginase 2.

Turning to `N[C@H]1CCN[C@](CCCCB(O)O)(C(=O)O)C1` (single isomer, unassigned; enantiomer 1) [Example 10, Anti-4-amino-2-(4-boronobutyl)piperidine-2-carboxylic acid enantiomer 1], the concentration for half-maximal inhibition (IC50) was 20100 nM on Human Arginase 1 and 53100 nM on Human Arginase 2.

With `CC[C@H](C)[C@H](N)C(=O)N[C@H]1CCN[C@@](CCCCB(O)O)(C(=O)O)C1` [Example 7, (2R,4S)-4-[[(2S,3S)-2-amino-3-methyl-pentanoyl]amino]-2-(4-boronobutyl)piperidine-2-carboxylic acid], the IC50 at Human Arginase 1 came out at 23 nM; at Human Arginase 2, 21 nM.

In data set [1] (setting [5]), `CC(C)[C@H](N)C(=O)N[C@H]1CCN[C@@](CCCCB(O)O)(C(=O)O)C1` [Example 2, (2R,4S)-4-((S)-2-amino-3-methylbutanamido)-2-(4-boronobutyl)piperidine-2-carboxylic acid] gave a bioavailability of 2%. Further, in data set [1] (setting [6]), the AUC came to 0.29 µM·h, the Cmax was 350 nM and the time of peak concentration (Tmax) is 0.25 h. In data set [1] (setting [7]), the clearance is 16.3 mL/min/kg and the Vd is 0.25 L/kg. The IC50 on Human Arginase 1 is 29 nM. Also, the IC50 at Human Arginase 2 was determined as 24 nM.

Turning to `NCC(=O)N[C@H]1CCN[C@@](CCCCB(O)O)(C(=O)O)C1` [Example 3, (2R,4S)-4-(2-aminoacetamido)-2-(4-boronobutyl)piperidine-2-carboxylic acid], the bioavailability in data set [1] (setting [5]) amounted to 5.2%. In addition, in data set [1] (setting [6]), the exposure (AUC) turned out to be 1.1 µM·h, the peak level (Cmax) was 640 nM and the Tmax came out at 0.75 h. Also, in data set [1] (setting [7]), the clearance amounted to 13.5 mL/min/kg and the Vd is 0.22 L/kg. Besides, the 50% inhibitory concentration (IC50) on Human Arginase 1 worked out at 80 nM. The IC50 on Human Arginase 2 was 59 nM.

In turn, `C[C@H](N)C(=O)N[C@H]1CCN[C@@](CCCCB(O)O)(C(=O)O)C1` [Example 4, (2R,4S)-4-[[(2S)-2-aminopropanoyl]amino]-2-(4-boronobutyl)piperidine-2-carboxylic acid] yielded a clearance in data set [1] (setting [7]) of 180 mL/min/kg. Further, the IC50 stood at 35 nM at Human Arginase 1 and 27 nM on Human Arginase 2.

With `CC(C)(C)[C@H](N)C(=O)N[C@H]1CCN[C@@](CCCCB(O)O)(C(=O)O)C1` [Example 8, (2R,4S)-4-[[(2S)-2-amino-3,3-dimethyl-butanoyl]amino]-2-(4-boronobutyl)piperidine-2-carboxylic acid], the half-maximal inhibitory concentration (IC50) on Human Arginase 1 worked out at 31 nM; on Human Arginase 2, 24 nM.
